Values quoted from earlier work in US7718380B2 (Abbott Laboratories, priority 2005, dated 2010).

solubility in aqueous solutions: limited solubility
SMILES: C=CC[C@@H]1/C=C(\C)C[C@H](C)C[C@H](OC)[C@H]2O[C@@](O)(C(=O)C(=O)N3CCCC[C@H]3C(=O)O[C@H](/C(C)=C/[C@@H]3CC[C@@H](O)[C@H](OC)C3)[C@H](C)[C@@H](O)CC1=O)[C@H](C)C[C@@H]2OC [Tacrolimus]
